Columns and labels:
Format in all cases: in vivo
[1] = tested on: second instar Popillia japonica grub populations; experiment: Microplot (cylinder) field trials, Trials 1-4; details: Ohio
Protocol: Microplot trials consisted of field plots in which PVC cylinders, 20 cm inside diameter, were inserted to a depth of about 7 cm. Four microplot trials (Trials 14) were conducted on second instar P. japonica grubs.
P. japonica adults were caged in the PVC cylinders to obtain grub populations following the methods described by Klein et al. (2000). Adult beetles were lured to Trece Catch Can traps (Trece Inc., Adair, Okla.) using a feeding lure containing PEG (phenol ethyl propionate, eugenol, and geraniol) and collected. Twice, at 1-week intervals, 30 adults consisting of approximately 50% females (measured volumetrically) were placed in each cylinder and covered with a nylon 20 mesh screen to induce egg laying within the cylinder area. The ovipositing beetles were fed fresh apple slices dusted with Brewer's yeast twice a week. Fourteen days after the initial caging, the nylon screens were removed. The developing grub population was monitored until the larvae reached the second instar, when all curative treatments were applied.
Trials 1, 2, and 4 were located at the Ohio Agricultural Research and Development Center, Wooster, Ohio whereas trial 3 was located at the TrueGreen Technical Center in Delaware, Ohio. Trials 1, 2, and 4 were set up on 1.5-m by 0.9-m plots, separated by 0.9 m alleyways, arranged in a complete randomized block design with four replications/treatment. For these trials, turf consisted of 70% Kentucky bluegrass and 30% dicot and monocot weed species, with level topography and no thatch was observed. Soil was a silt loam, with 2.8% OM, pH 6.0, 11.4 CEC. Trial 3 was conducted on Kentucky bluegrass lawn using 2.44 by 2.44 m plots arranged in a completely randomized block design with 5 replications/treatment. Soil was also a silt loam. Supplemental irrigation was applied prior to treatments to optimize beetle egg hatch and maintain actively growing turfgrass at both locations.
The nematodes were applied in 100 ml of water at 2.5×10^9 IJs/ha as a curative treatment to each cylinder except for trial 3, in which they were applied at 5.0×10^9 IJs/ha in 7.6 liters of water per plot with a hand held sprinkling can. Chemical insecticides were included for comparison in three of the trials. In trial 1, halofenozide was applied at 1.61 kg active ingredient (a.i.)/ha on Jul. 13, 2000 as a preventive treatment prior to P. japonica egg laying with a CO2 sprayer and Teejet 8015 nozzles at 2.81 kg/cm^2 (40 psi) delivering 1630 liters/ha. In trial 2, imidacloprid (Merit 75 WP) was applied at 0.33 kg a.i./ha on July 14 and trichlorfon granules (Dylox 6.2G) at 9.0 kg a.i./ha with a shaker on September 14. In trial 3, trichlorofon was applied as in trial 2. All plots received post-application irrigation (see Table 2).
(§1) Efficacy data from all field trials were obtained from six, 18×18×7 cm deep samples removed from the middle of each plot. Soil from each square was lifted with a spade and placed in a plastic dishpan and the number of live grubs counted by hand sifting the soil and turf.
(§2) Data on the total numbers of surviving grubs from each plot were subjected to the analysis of variance following the log10 […] transformation using Statsoft (1999) for each trial and means were separated by Tukey's mean separation test at P=0.05. In cylinder studies, the number of surviving grubs from all cylinders were pooled by plot. […]. For predictability analysis, all data on the mean percentage control of all white grubs were pooled by treatment and subjected to the analysis of variance using Statsoft (1999) following arcsine transformation. Only trichlorfon was included in these analyses as it is applied as a curative treatment just like the nematodes.

[2] = tested on: mixed populations of third instar Popillia japonica and Cyclocephala borealis grubs; experiment: Large field plot trials 6 and 7, Kentucky bluegrass lawn; details: Ohio, autumn 2001, nematodes 2.5 × 10^9 IJs/ha, applied September 14, data October 9
Protocol: Trials 6 and 7 were conducted on stands of Kentucky bluegrass naturally infested with mixed populations of mostly third instar P. japonica and C. borealis in autumn 2001. The 1.2 by 1.2-m plots were located at the TrueGreen Technical Center in Delaware, Ohio. The nematodes were applied at 2.5×10^9 IJs/ha in trial 6 and at 5.0×10^9 IJ/ha in trial 7 with a CO2 backpack sprayer with a 10 cm boom fitted with three 8005 LP flat fan nozzles at a volume of 813 liters/ha. Plots were arranged in a randomized complete block design with 5 replications/treatment for both trials.
as §1, §2

[3] = tested on: Cyclocephala borealis grubs; experiment: Large field plot trial 5, golf course fairway; details: Trial 5, Mansfield, Ohio, autumn 2001; nematodes 2.5 × 10^9 IJ/ha, imidacloprid 0.33 kg, trichlorfon 9.0 kg; applied September 11, data October 9
Protocol: (§3) Four field plot trials (Trials 5-8) were conducted on natural populations of P. japonica and C. borealis, or both species if they occurred together. Trial 5 was conducted on a naturally occurring mixed population of P. japonica and C. borealis grubs on a fairway at Wooldridge Woods Golf Course in Mansfield, Ohio in autumn 2001. Plots measuring 3-m by 3-m and separated by 0.9-m alleyways were arranged in a complete randomized block design with five replications/treatment. All treatments including imidacloprid (Merit 75WP) and trichlorfon (Dylox 6.2G) were applied on the morning of September 11 as curative treatments. Liquid applications were made with a sprinkling can at a volume of 8 liters/plot. Nematodes were applied at 2.5×10^9 IJ/ha. The trichlorfon granules were applied using a Gandy Drop Spreader (Gandy Company, Owatonna, Minn.). Grub population consisted of 30% second and 70% third instar P. japonica, and 100% third instar C. borealis. Turf consisted of 70% Kentucky bluegrass and 30% annual bluegrass, topography level, height 2.5 cm, and had no thatch.
as §1, §2

Popillia japonica grubs = experiment: Large field plot trial 5, golf course fairway; details: Trial 5, Mansfield, Ohio, autumn 2001, nematodes 2.5 × 10^9 IJ/ha, imidacloprid 0.33 kg, trichlorfon 9.0 kg, applied September 11, data October 9
Protocol: as §3, §1, §2

[4] = tested on: white grubs, Popillia japonica and Cyclocephala borealis; experiment: Pooled analysis of field trials (irrigation plus rainfall, predictability); details: nematodes at 2.5×10^9 IJs/ha, trichlorfon curatively at standard rate; mean ± S.E.
Source text: as §2

[5] = Trial 2, 2001 Wooster, nematodes 2.5 × 10^9 IJs/ha Sept 12, imidacloprid 0.34 kg July 14, trichlorfon 9.0 kg Sept 12, observed Oct 10
[6] = Trial 3, 2001 Columbus, nematodes 5.0 × 10^9 IJs/ha, trichlorfon 9.0 kg, applied Sept 14, observed Oct 9
[7] = Trial 6, Columbus, trichlorfon 9.0 kg/ha
[8] = Trial 7, Columbus, trichlorfon standard rate 9.0 kg
[9] = Trial 1, 2000 Wooster, nematodes 2.5 × 10^9 IJs/ha applied Sept 13, halofenozide 1.61 kg a.i./ha applied July 13, observed Oct 5

SMILES: COP(=O)(OC)C(O)C(Cl)(Cl)Cl (stereo not shown) [Trichlorfon]
- % Control [1, 5]: 92%
- Mean grubs/plot [1, 5]: 1.3 cd grubs/plot
- % Control [1, 6]: 29%
- Mean grubs/plot [1, 6]: 6.4 ab grubs/plot
- % Control [2, 7]: 0%
- Mean grubs/plot [2, 7]: 11.7 a grubs/plot
- % Control [2, 8]: 77%
- Mean grubs/plot [2, 8]: 4.0 b grubs/plot
- C. borealis % control [3]: 47%
- C. borealis Mean grubs/plot [3]: 3.8 b grubs/plot
- P. japonica % Control (Popillia japonica grubs): 57%
- P. japonica Mean grubs/plot (Popillia japonica grubs): 7.6 c grubs/plot
- overall percent white grub control, pooled data across all trials [4]: 50.33±13.5%

SMILES: CC(C)(C)N(NC(=O)c1ccc(Cl)cc1)C(=O)c1ccccc1 [Halofenozide]
- % Control [1, 9]: 98%
- Mean grubs/plot [1, 9]: 0.7 b grubs/plot

SMILES: O=[N+]([O-])NC1=NCCN1Cc1ccc(Cl)nc1 [Imidacloprid]
- % Control [1, 5]: 98%
- Mean grubs/plot [1, 5]: 0.3 d grubs/plot
- C. borealis % control [3]: 47%
- C. borealis Mean grubs/plot [3]: 3.8 ab grubs/plot
- P. japonica % Control (Popillia japonica grubs): no effect
- P. japonica Mean grubs/plot (Popillia japonica grubs): 17.8 a grubs/plot
- P. japonica % Control (Popillia japonica grubs; listed as IMIDACLOPRID (MERIT 75 WP)): 0%
